Laboratory results published in patent publication US20140213538A1, “LYSOPHOSPHATIDIC ACID RECEPTOR ANTAGONISTS” (InterMune, Inc., priority 2013, published 2014).

Assays:
Type in all cases: cell-based
LPA1 [1] = molecular target: T1, LPA1 (Homo sapiens, UniProt Q92633); test: LPA1 Migration Assay (Oris); design: host or cells: primary fibroblasts (lung, dermal), HFL-1, 3T3 and CHO cells expressing LPA1R; conditions: read-out: Cell Migration EC50
Summary of the method: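 Antagonist inhibition was derived by 4-parameter logistic fitting of migrated-cell counts against compound concentration. Dye-loaded, 12-24 h serum-starved fibroblasts, HFL-1, 3T3 or CHO cells expressing LPA1R moved into an Oris detection zone in response to LPA or serum, then were fixed and counted on a high-content reader.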

LPA/S1P GPCR of interest = molecular target: T2, LPA/S1P GPCR of interest (Homo sapiens, UniProt Q92633); test: Beta-Arrestin based assay (PathHunter)
T2 construct: host or cells: CHO
T2 sequence (Q92633 whole entry): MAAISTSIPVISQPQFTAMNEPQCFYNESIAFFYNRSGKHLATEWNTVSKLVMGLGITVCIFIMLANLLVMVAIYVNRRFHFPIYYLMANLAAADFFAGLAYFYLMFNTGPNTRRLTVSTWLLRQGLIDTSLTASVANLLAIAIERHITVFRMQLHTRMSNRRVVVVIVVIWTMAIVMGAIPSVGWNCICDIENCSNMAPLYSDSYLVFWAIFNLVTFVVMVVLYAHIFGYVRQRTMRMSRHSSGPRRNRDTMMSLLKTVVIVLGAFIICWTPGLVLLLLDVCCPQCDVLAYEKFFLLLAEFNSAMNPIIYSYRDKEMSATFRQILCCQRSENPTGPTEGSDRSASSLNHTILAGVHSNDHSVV
Summary of the method: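 EA Parental CHO cells (DiscoverX) were transfected with FuGENE (Roche) using CMV promoter-driven DNA constructs encoding the LPA/S1P GPCR of interest fused to a ProLink tag. Beta-arrestin recruitment in agonist mode was assessed 24-48 hrs later with PathHunter kits. Tests ran in quadruplicate in white 384 well plates, and end point luminescence was fit to a 4 parameter logistic function.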

LPA1 [2] = molecular target: T1, LPA1; test: Ca Flux LPA1 assay; design: the full-length cDNA for human LPA1 is obtained by PCR of the reverse transcription reaction; expressed in transfected cells

T1 sequence (Q92633 whole entry): as above

SMILES	EC50 (LPA1 [1]) [µM]	EC50 (LPA/S1P GPCR of interest) [µM]	IC50 (LPA1 [2]) [µM]
C[C@@H](OC(=O)Nc1c(-c2ccc(-c3ccc(Oc4ccccc4C(=O)O)c(F)c3)cc2)cnn1C)c1ccccc1 [IT446]	< 0.05	< 0.05	< 0.05
Cc1nsc(-c2ccc(-c3cc(F)c(Oc4ccccc4C(=O)O)c(F)c3)cc2)c1NC(=O)O[C@H](C)c1ccccc1 [IT448]	0.05 to 0.5	< 0.05	0.05 to 0.5
C[C@@H](OC(=O)Nc1c(-c2ccc(-c3cc(F)c(Oc4ncccc4C(=O)O)c(F)c3)cc2)cnn1C)c1ccccc1Cl [IT450]	< 0.05	< 0.05	0.05 to 0.5
Cc1nsc(-c2ccc(-c3cc(F)c(Oc4ncccc4C(=O)O)c(F)c3)cc2)c1NC(=O)O[C@H](C)c1ccccc1 [IT451]	< 0.05	< 0.05	0.05 to 0.5
C[C@@H](OC(=O)Nc1c(-c2ccc(-c3cc(F)c(Oc4ccncc4C(=O)O)c(F)c3)cc2)nnn1C)c1ccccc1 [IT453]	< 0.05	< 0.05	0.05 to 0.5
Cc1noc(-c2cc(F)c(-c3cc(F)c(Oc4ncccc4C(=O)O)c(F)c3)cc2F)c1NC(=O)O[C@H](C)c1ccccc1 [IT474]	< 0.05	< 0.05	< 0.05
COC(=O)C1(c2cc3sc(C#Cc4cnn(C)c4NC(=O)O[C@H](C)c4ccccc4)cc3s2)CC1 [IT479]	> 0.5	< 0.05	0.05 to 0.5
CCn1ncc(-c2ccc(-c3cc(F)c(Oc4ncccc4C(=O)O)c(F)c3)cc2)c1NC(=O)O[C@H](C)c1ccccc1 [IT489]	< 0.05	< 0.05	0.05 to 0.5

Other lines, results leading:

EC50 (LPA1 [1]) [µM]	EC50 (LPA/S1P GPCR of interest) [µM]	IC50 (LPA1 [2]) [µM]	SMILES
< 0.05	< 0.05	< 0.05	C[C@@H](OC(=O)Nc1c(-c2ccc(-c3ccc(Oc4ccccc4C(=O)O)c(F)c3)cc2)nnn1C)c1ccccc1 [IT447]
< 0.05	< 0.05	> 0.5	Cc1noc(-c2ccc(-c3cc(F)c(Oc4ccccc4C(=O)O)c(F)c3)cc2)c1NC(=O)O[C@H](C)c1ccccc1Cl [IT449]
< 0.05	< 0.05	< 0.05	C[C@@H](OC(=O)Nc1c(-c2ccc(-c3cc(F)c(Oc4cccnc4C(=O)O)c(F)c3)cc2)nnn1C)c1ccccc1 [IT452]
< 0.05	< 0.05	> 0.5	Cc1noc(-c2ccc(-c3cc(F)c(Oc4nc5ccccc5cc4C(=O)O)c(F)c3)cc2)c1NC(=O)O[C@H](C)c1ccccc1 [IT481]
0.05 to 0.5	< 0.05	0.05 to 0.5	Cc1noc(-c2ccc(-c3ccc(Oc4c(C)nn(C)c4C(=O)O)cc3)cc2)c1NC(=O)O[C@H](C)c1ccccc1 [IT483]
0.05 to 0.5	< 0.05	< 0.05	Cc1noc(-c2ccc(-c3ccc(Oc4c(C(=O)O)nn(C)c4C)cc3)cc2)c1NC(=O)O[C@H](C)c1ccccc1 [IT484]
< 0.05	< 0.05	0.05 to 0.5	Cc1noc(-c2ccc(-c3ccc(Oc4c(C(=O)O)n[nH]c4C)cc3)cc2)c1NC(=O)O[C@H](C)c1ccccc1 [IT485]
< 0.05	< 0.05	> 0.5	C[C@@H](OC(=O)Nc1c(-c2ccc(-c3ccc(C4(C(=O)O)CC4)cc3)cc2)oc2ccccc12)c1ccccc1 [IT496]
